Results from the NIST ThermoML archive (doi:10.1021/je800527p).

Assay: mn = molality of the nth substance listed, in mol/kg
Details: 101 kPa, Liquid

N[C@@H](CC(=O)NCC(=O)O)C(=O)NCC(=O)O [L-aspartoylbisglycine] + O
Details	mass density [kg/m3]
288.15 K, m1 = 0.02634	1001.74
288.15 K, m1 = 0.03248	1002.34
288.15 K, m1 = 0.03979	1003.07
288.15 K, m1 = 0.04516	1003.6
288.15 K, m1 = 0.05155	1004.23
288.15 K, m1 = 0.05974	1005.03
288.15 K, m1 = 0.06457	1005.5
288.15 K, m1 = 0.06951	1005.98
298.15 K, m1 = 0.02287	999.295
298.15 K, m1 = 0.02484	999.489
298.15 K, m1 = 0.02795	999.79
298.15 K, m1 = 0.03159	1000.15
298.15 K, m1 = 0.0337	1000.35
298.15 K, m1 = 0.03757	1000.73
298.15 K, m1 = 0.04282	1001.24
298.15 K, m1 = 0.0486	1001.8
298.15 K, m1 = 0.05367	1002.29
298.15 K, m1 = 0.05892	1002.8
303.15 K, m1 = 0.02228	997.821
303.15 K, m1 = 0.02508	998.095
303.15 K, m1 = 0.02783	998.36
303.15 K, m1 = 0.0319	998.757
303.15 K, m1 = 0.03772	999.316
303.15 K, m1 = 0.0429	999.814
303.15 K, m1 = 0.04971	1000.47
303.15 K, m1 = 0.0554	1001.02
303.15 K, m1 = 0.06187	1001.64
313.15 K, m1 = 0.02228	994.368
313.15 K, m1 = 0.02508	994.635
313.15 K, m1 = 0.02783	994.898
313.15 K, m1 = 0.0319	995.29
313.15 K, m1 = 0.03772	995.842
313.15 K, m1 = 0.0429	996.336
313.15 K, m1 = 0.04971	996.987
313.15 K, m1 = 0.0554	997.526
313.15 K, m1 = 0.06187	998.14

NCC(=O)N[C@@H](CS)C(=O)NCC(=O)O [glycyl-L-cysteinylglycine] + O
Details	mass density [kg/m3]
288.15 K, m1 = 0.01633	1000.63
288.15 K, m1 = 0.02087	1001.05
288.15 K, m1 = 0.02582	1001.51
288.15 K, m1 = 0.02984	1001.88
288.15 K, m1 = 0.03474	1002.34
288.15 K, m1 = 0.0395	1002.78
288.15 K, m1 = 0.04097	1002.91
288.15 K, m1 = 0.04442	1003.23
288.15 K, m1 = 0.04953	1003.71
303.15 K, m1 = 0.02103	997.568
303.15 K, m1 = 0.02497	997.92
303.15 K, m1 = 0.02788	998.184
303.15 K, m1 = 0.03046	998.417
303.15 K, m1 = 0.03394	998.731
303.15 K, m1 = 0.0374	999.043
303.15 K, m1 = 0.04008	999.279
303.15 K, m1 = 0.04358	999.593
303.15 K, m1 = 0.05003	1000.17
303.15 K, m1 = 0.05296	1000.43
313.15 K, m1 = 0.02094	994.099
313.15 K, m1 = 0.03109	995.001
313.15 K, m1 = 0.03597	995.437
313.15 K, m1 = 0.03941	995.739
313.15 K, m1 = 0.04508	996.242
313.15 K, m1 = 0.05002	996.672
313.15 K, m1 = 0.05218	996.867
313.15 K, m1 = 0.05751	997.331

NCC(=O)N[C@@H](Cc1cnc[nH]1)C(=O)NCC(=O)O [glycyl-L-histidylglycine] + O
Details	mass density [kg/m3]
288.15 K, m1 = 0.004019	999.501
288.15 K, m1 = 0.00501	999.6
288.15 K, m1 = 0.006072	999.708
288.15 K, m1 = 0.007051	999.802
288.15 K, m1 = 0.008127	999.911
288.15 K, m1 = 0.00901	1000
288.15 K, m1 = 0.01012	1000.11
288.15 K, m1 = 0.01088	1000.19
288.15 K, m1 = 0.01205	1000.31
298.15 K, m1 = 0.004009	997.442
298.15 K, m1 = 0.007226	997.762
298.15 K, m1 = 0.008041	997.838
298.15 K, m1 = 0.00901	997.939
298.15 K, m1 = 0.01009	998.038
298.15 K, m1 = 0.01109	998.142
298.15 K, m1 = 0.01227	998.254
303.15 K, m1 = 0.00404	996.046
303.15 K, m1 = 0.00498	996.138
303.15 K, m1 = 0.006103	996.247
303.15 K, m1 = 0.00711	996.346
303.15 K, m1 = 0.007975	996.427
303.15 K, m1 = 0.01106	996.73
303.15 K, m1 = 0.01225	996.842
313.15 K, m1 = 0.005108	992.711
313.15 K, m1 = 0.006051	992.804
313.15 K, m1 = 0.006936	992.89
313.15 K, m1 = 0.0082	993.012
313.15 K, m1 = 0.01022	993.207
313.15 K, m1 = 0.01138	993.309
313.15 K, m1 = 0.01232	993.4

NCC(=O)N[C@@H](CO)C(=O)NCC(=O)O [glycyl-L-serylglycine] + O
Details	mass density [kg/m3]
288.15 K, m1 = 0.03014	1001.82
288.15 K, m1 = 0.03542	1002.28
288.15 K, m1 = 0.04107	1002.79
288.15 K, m1 = 0.04543	1003.18
288.15 K, m1 = 0.05019	1003.61
288.15 K, m1 = 0.05524	1004.05
288.15 K, m1 = 0.06026	1004.51
288.15 K, m1 = 0.06526	1004.95
298.15 K, m1 = 0.025	999.264
298.15 K, m1 = 0.0306	999.768
298.15 K, m1 = 0.03505	1000.16
298.15 K, m1 = 0.04024	1000.61
298.15 K, m1 = 0.04521	1001.05
298.15 K, m1 = 0.05166	1001.62
298.15 K, m1 = 0.05493	1001.9
298.15 K, m1 = 0.0598	1002.34
298.15 K, m1 = 0.06564	1002.84
303.15 K, m1 = 0.02533	997.881
303.15 K, m1 = 0.02992	998.289
303.15 K, m1 = 0.03496	998.733
303.15 K, m1 = 0.0453	999.64
303.15 K, m1 = 0.05003	1000.05
303.15 K, m1 = 0.0555	1000.53
303.15 K, m1 = 0.06095	1001
303.15 K, m1 = 0.06473	1001.34
313.15 K, m1 = 0.02969	994.793
313.15 K, m1 = 0.03329	995.098
313.15 K, m1 = 0.03976	995.655
313.15 K, m1 = 0.04401	996.025
313.15 K, m1 = 0.04969	996.506
313.15 K, m1 = 0.05419	996.891
313.15 K, m1 = 0.05935	997.32
313.15 K, m1 = 0.06498	997.808

NCC(=O)N[C@@H](Cc1ccc(O)cc1)C(=O)NCC(=O)O [glycyl-L-tyrosylglycine] + O
Details	mass density [kg/m3]
288.15 K, m1 = 0.01708	1000.85
288.15 K, m1 = 0.01938	1001.08
288.15 K, m1 = 0.02117	1001.26
288.15 K, m1 = 0.023	1001.45
288.15 K, m1 = 0.02384	1001.53
288.15 K, m1 = 0.02504	1001.65
288.15 K, m1 = 0.02575	1001.72
288.15 K, m1 = 0.02705	1001.85
288.15 K, m1 = 0.0279	1001.95
288.15 K, m1 = 0.02909	1002.06
303.15 K, m1 = 0.01685	997.325
303.15 K, m1 = 0.01781	997.42
303.15 K, m1 = 0.019	997.535
303.15 K, m1 = 0.02087	997.719
303.15 K, m1 = 0.02301	997.932
303.15 K, m1 = 0.02396	998.023
303.15 K, m1 = 0.02501	998.127
303.15 K, m1 = 0.02604	998.224
303.15 K, m1 = 0.02701	998.323
303.15 K, m1 = 0.02792	998.415
303.15 K, m1 = 0.02882	998.496
313.15 K, m1 = 0.017	993.889
313.15 K, m1 = 0.01785	993.972
313.15 K, m1 = 0.01889	994.065
313.15 K, m1 = 0.02086	994.259
313.15 K, m1 = 0.0216	994.332
313.15 K, m1 = 0.02288	994.456
313.15 K, m1 = 0.02376	994.546
313.15 K, m1 = 0.02492	994.655
313.15 K, m1 = 0.02586	994.742
313.15 K, m1 = 0.02688	994.842
313.15 K, m1 = 0.02763	994.913
313.15 K, m1 = 0.02902	995.047
